Assay results: patent US20210386985A1, “BIODEGRADABLE MICRONEEDLES FOR TRANSDERMAL THERAPEUTIC AGENT DELIVERY” (THE REGENTS OF THE UNIVERSITY OF CALIFORNIA, priority 2018, published 2021)

Tested on: melanoma cell line A375
Test: In vitro anticancer efficacy of the released DOX (MTT and Live/Dead assay)
Format: cell-based, human
Conditions: A375 cells, microneedles incubated 1 h
Description: A human melanoma cell line A375 was used as the model to investigate the anticancer efficiency of DOX released from the microneedles 14. After incubating microneedles 14 containing 10 μg of DOX with the plated cells for 1 h, the viability of A375 cells was examined using an MTT assay after 24 h. […] The DOX-induced cell death was further investigated by a Live/Dead assay, where live cells metabolized calcein AM into the green fluorescent calcein, and dead cells with compromised membrane integrity were stained by the red fluorescent dye EthD-1. […] The possible reason was that microneedles 14 with more crosslinking time would release less DOX at the same releasing time (1 h).
In vitro anticancer efficacy of the released DOX: In vitro cytotoxicity of the released DOX was evaluated using the melanoma cell line A375 as the model. Specifically, A375 cells were plated in 24-well plates (1×10^6 per well) and incubated for 24 h. Microneedles 14 with different crosslinking degrees were added and incubated for 1 h. After that, the microneedles 14 were removed from the wells, and A375 cells were incubated for another 24 h. The effects of DOX on the metabolic activity of A375 cells in vitro were tested with a rapid colorimetric MTT assay. The absorbance of the wells was read at 570 nm with 630 nm as the reference. […]

SMILES: COc1cccc2c1C(=O)c1c(O)c3c(c(O)c1C2=O)C[C@@](O)(C(=O)CO)C[C@@H]3O[C@H]1C[C@H](N)[C@H](O)[C@H](C)O1 [DOX, doxorubicin]
- cell death (Live/Dead assay): cell death was observed
